Results published in PubChem BioAssay (NCI).
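The compound was tested at five concentrations on cells cultured in 96-well plates, with a 48-hour exposure period. Definition used: TGI = concentration required for complete inhibition of growth.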

Assays:
Experiment in all cases: NCI anticancer screen, dose series, 48 h
SN12C renal = tested on: SN12C renal
HL-60(TB) leukemia = tested on: HL-60(TB) leukemia
SF-295 CNS = tested on: SF-295 CNS
HT29 colon = tested on: HT29 colon
OVCAR-5 ovarian = tested on: OVCAR-5 ovarian
COLO 205 colon = tested on: COLO 205 colon
UACC-62 melanoma = tested on: UACC-62 melanoma
MCF7 breast = tested on: MCF7 breast
SNB-75 CNS = tested on: SNB-75 CNS
NCI-H23 lung = tested on: NCI-H23 lung
RPMI-8226 leukemia = tested on: RPMI-8226 leukemia
786-0 renal = tested on: 786-0 renal
UACC-257 melanoma = tested on: UACC-257 melanoma
U251 CNS = tested on: U251 CNS
SK-MEL-28 melanoma = tested on: SK-MEL-28 melanoma
DU-145 prostate = tested on: DU-145 prostate
CCRF-CEM leukemia = tested on: CCRF-CEM leukemia
NCI-H522 lung = tested on: NCI-H522 lung
M14 melanoma = tested on: M14 melanoma
SR leukemia = tested on: SR leukemia
TK-10 renal = tested on: TK-10 renal
EKVX NSCLC = tested on: EKVX NSCLC
SNB-19 CNS = tested on: SNB-19 CNS
HS 578T breast = tested on: HS 578T breast
SK-OV-3 ovarian = tested on: SK-OV-3 ovarian
NCI-H460 lung = tested on: NCI-H460 lung
PC-3 prostate = tested on: PC-3 prostate
HCT-116 colon = tested on: HCT-116 colon
CAKI-1 renal = tested on: CAKI-1 renal
SK-MEL-2 melanoma = tested on: SK-MEL-2 melanoma
IGROV1 ovarian = tested on: IGROV1 ovarian
MOLT-4 leukemia = tested on: MOLT-4 leukemia
LOX IMVI melanoma = tested on: LOX IMVI melanoma
MDA-MB-435 = tested on: MDA-MB-435
A498 renal = tested on: A498 renal
OVCAR-3 ovarian = tested on: OVCAR-3 ovarian
RXF 393 renal = tested on: RXF 393 renal
SF-539 CNS = tested on: SF-539 CNS
NCI-H226 lung = tested on: NCI-H226 lung
OVCAR-8 ovarian = tested on: OVCAR-8 ovarian
NCI/ADR-RES ovarian = tested on: NCI/ADR-RES ovarian
KM12 colon = tested on: KM12 colon
SF-268 CNS = tested on: SF-268 CNS
HCT-15 colon = tested on: HCT-15 colon
A549 NSCLC = tested on: A549 NSCLC
K-562 leukemia = tested on: K-562 leukemia
MDA-MB-231 breast = tested on: MDA-MB-231 breast
SW-620 colon = tested on: SW-620 colon
SK-MEL-5 melanoma = tested on: SK-MEL-5 melanoma
HOP-62 NSCLC = tested on: HOP-62 NSCLC
HOP-92 NSCLC = tested on: HOP-92 NSCLC
HCC-2998 colon = tested on: HCC-2998 colon
ACHN renal = tested on: ACHN renal
T-47D breast = tested on: T-47D breast
MALME-3M melanoma = tested on: MALME-3M melanoma
UO-31 renal = tested on: UO-31 renal
OVCAR-4 ovarian = tested on: OVCAR-4 ovarian
BT-549 breast = tested on: BT-549 breast
MDA-N = tested on: MDA-N

## COc1cc(C2c3cc4c(cc3OC(N3CCCCC3)C2C)OCO4)cc(OC)c1OC (configuration not stated)
SN12C renal
  TGI: > 100 µM
HL-60(TB) leukemia
  TGI: > 22.2 µM
SF-295 CNS
  TGI: 5.77 µM
HT29 colon
  TGI: 19.8 µM
OVCAR-5 ovarian
  TGI: > 45.7 µM
COLO 205 colon
  TGI: 11.3 µM
UACC-62 melanoma
  TGI: 47 µM
MCF7 breast
  TGI: 19.4 µM
SNB-75 CNS
  TGI: 19.3 µM
NCI-H23 lung
  TGI: > 49.8 µM
RPMI-8226 leukemia
  TGI: 37.9 µM
786-0 renal
  TGI: 16.3 µM
UACC-257 melanoma
  TGI: > 82.7 µM
U251 CNS
  TGI: 12.7 µM
SK-MEL-28 melanoma
  TGI: > 100 µM
DU-145 prostate
  TGI: 19.8 µM
CCRF-CEM leukemia
  TGI: 23.2 µM
NCI-H522 lung
  TGI: 9.99 µM
M14 melanoma
  TGI: 15 µM
SR leukemia
  TGI: > 54.2 µM
TK-10 renal
  TGI: 35.4 µM
EKVX NSCLC
  TGI: > 100 µM
SNB-19 CNS
  TGI: 26.2 µM
HS 578T breast
  TGI: 7.23 µM
SK-OV-3 ovarian
  TGI: 12.6 µM
NCI-H460 lung
  TGI: 18 µM
PC-3 prostate
  TGI: > 100 µM
HCT-116 colon
  TGI: 15.3 µM
CAKI-1 renal
  TGI: 17.5 µM
SK-MEL-2 melanoma
  TGI: 14.9 µM
IGROV1 ovarian
  TGI: 26 µM
MOLT-4 leukemia
  TGI: 67.4 µM
LOX IMVI melanoma
  TGI: 45 µM
MDA-MB-435
  TGI: 2.91 µM
A498 renal
  TGI: 12.8 µM
OVCAR-3 ovarian
  TGI: 6.66 µM
RXF 393 renal
  TGI: 5.49 µM
SF-539 CNS
  TGI: 5.9 µM
NCI-H226 lung
  TGI: 13.5 µM
OVCAR-8 ovarian
  TGI: > 63.6 µM
NCI/ADR-RES ovarian
  TGI: 17.1 µM
KM12 colon
  TGI: 37.4 µM
SF-268 CNS
  TGI: > 53.7 µM
HCT-15 colon
  TGI: > 100 µM
A549 NSCLC
  TGI: 36.1 µM
K-562 leukemia
  TGI: 13.7 µM
MDA-MB-231 breast
  TGI: 21 µM
SW-620 colon
  TGI: > 55.4 µM
SK-MEL-5 melanoma
  TGI: 17.6 µM
HOP-62 NSCLC
  TGI: 10.2 µM
HOP-92 NSCLC
  TGI: 48.1 µM
HCC-2998 colon
  TGI: 8.39 µM
ACHN renal
  TGI: 28.7 µM
T-47D breast
  TGI: > 53.8 µM
MALME-3M melanoma
  TGI: > 84.6 µM
UO-31 renal
  TGI: 46.2 µM
OVCAR-4 ovarian
  TGI: > 100 µM
BT-549 breast
  TGI: > 100 µM
MDA-N
  TGI: 3.28 µM

## O=C1C[C@H](Sc2ccccc2)C2(OCCO2)[C@H]2ON3CCC[C@@H]3[C@@H]12
SN12C renal
  TGI: 6.29 µM
HL-60(TB) leukemia
  TGI: 3.67 µM
SF-295 CNS
  TGI: 14.4 µM
HT29 colon
  TGI: 2.81 µM
OVCAR-5 ovarian
  TGI: 7.8 µM
COLO 205 colon
  TGI: 5.31 µM
UACC-62 melanoma
  TGI: 3.77 µM
MCF7 breast
  TGI: 3.16 µM
SNB-75 CNS
  TGI: 11.5 µM
NCI-H23 lung
  TGI: 7.12 µM
RPMI-8226 leukemia
  TGI: 1.33 µM
786-0 renal
  TGI: 4.98 µM
UACC-257 melanoma
  TGI: 8.71 µM
U251 CNS
  TGI: 6.66 µM
SK-MEL-28 melanoma
  TGI: 7.55 µM
DU-145 prostate
  TGI: 6.95 µM
CCRF-CEM leukemia
  TGI: 0.829 µM
NCI-H522 lung
  TGI: 2.08 µM
M14 melanoma
  TGI: 7.19 µM
SR leukemia
  TGI: 1.95 µM
TK-10 renal
  TGI: 13.3 µM
EKVX NSCLC
  TGI: 9.64 µM
SNB-19 CNS
  TGI: 19.6 µM
HS 578T breast
  TGI: > 39 µM
SK-OV-3 ovarian
  TGI: 11.4 µM
NCI-H460 lung
  TGI: 9.55 µM
PC-3 prostate
  TGI: 13 µM
HCT-116 colon
  TGI: 2.88 µM
CAKI-1 renal
  TGI: 7.13 µM
SK-MEL-2 melanoma
  TGI: 13.8 µM
IGROV1 ovarian
  TGI: 2.46 µM
MOLT-4 leukemia
  TGI: 1.85 µM
LOX IMVI melanoma
  TGI: 3.05 µM
MDA-MB-435
  TGI: 3.9 µM
A498 renal
  TGI: 27.9 µM
OVCAR-3 ovarian
  TGI: 2.75 µM
RXF 393 renal
  TGI: 11 µM
SF-539 CNS
  TGI: 7.9 µM
NCI-H226 lung
  TGI: 26.7 µM
OVCAR-8 ovarian
  TGI: 11.5 µM
NCI/ADR-RES ovarian
  TGI: 30.8 µM
KM12 colon
  TGI: 2.87 µM
SF-268 CNS
  TGI: 7.25 µM
HCT-15 colon
  TGI: 4.42 µM
A549 NSCLC
  TGI: 13 µM
K-562 leukemia
  TGI: 8.11 µM
MDA-MB-231 breast
  TGI: 10.9 µM
SW-620 colon
  TGI: 5.82 µM
SK-MEL-5 melanoma
  TGI: 21.6 µM
HOP-62 NSCLC
  TGI: 5.29 µM
HOP-92 NSCLC
  TGI: 3.92 µM
HCC-2998 colon
  TGI: 6.69 µM
ACHN renal
  TGI: 5.55 µM
T-47D breast
  TGI: 7.17 µM
MALME-3M melanoma
  TGI: 4.01 µM
UO-31 renal
  TGI: 3.61 µM
OVCAR-4 ovarian
  TGI: 9.14 µM
BT-549 breast
  TGI: 16.2 µM
MDA-N
  TGI: 13.3 µM

## NC(N)=NS(=O)(=O)c1ccc(NC(=O)c2cccc3c(NNc4ccc(C(=O)O)cc4)c4ccccc4nc23)cc1
SN12C renal
  TGI: > 100 µM
HL-60(TB) leukemia
  TGI: > 100 µM
SF-295 CNS
  TGI: > 100 µM
HT29 colon
  TGI: > 100 µM
OVCAR-5 ovarian
  TGI: > 100 µM
COLO 205 colon
  TGI: > 100 µM
UACC-62 melanoma
  TGI: > 100 µM
MCF7 breast
  TGI: > 100 µM
SNB-75 CNS
  TGI: > 100 µM
NCI-H23 lung
  TGI: > 100 µM
RPMI-8226 leukemia
  TGI: > 100 µM
786-0 renal
  TGI: > 100 µM
UACC-257 melanoma
  TGI: > 100 µM
U251 CNS
  TGI: > 100 µM
SK-MEL-28 melanoma
  TGI: > 100 µM
DU-145 prostate
  TGI: > 100 µM
CCRF-CEM leukemia
  TGI: 85.2 µM
NCI-H522 lung
  TGI: > 100 µM
M14 melanoma
  TGI: > 100 µM
SR leukemia
  TGI: > 100 µM
TK-10 renal
  TGI: > 100 µM
EKVX NSCLC
  TGI: > 100 µM
SNB-19 CNS
  TGI: > 100 µM
HS 578T breast
  TGI: > 100 µM
SK-OV-3 ovarian
  TGI: > 100 µM
NCI-H460 lung
  TGI: > 100 µM
PC-3 prostate
  TGI: > 100 µM
HCT-116 colon
  TGI: > 100 µM
CAKI-1 renal
  TGI: > 100 µM
SK-MEL-2 melanoma
  TGI: 95.7 µM
IGROV1 ovarian
  TGI: > 100 µM
MOLT-4 leukemia
  TGI: > 100 µM
LOX IMVI melanoma
  TGI: > 100 µM
MDA-MB-435
  TGI: > 100 µM
A498 renal
  TGI: 98.2 µM
OVCAR-3 ovarian
  TGI: > 100 µM
RXF 393 renal
  TGI: > 100 µM
SF-539 CNS
  TGI: > 100 µM
NCI-H226 lung
  TGI: > 100 µM
OVCAR-8 ovarian
  TGI: > 100 µM
NCI/ADR-RES ovarian
  TGI: > 100 µM
KM12 colon
  TGI: > 100 µM
SF-268 CNS
  TGI: > 100 µM
HCT-15 colon
  TGI: > 100 µM
A549 NSCLC
  TGI: > 100 µM
K-562 leukemia
  TGI: > 100 µM
MDA-MB-231 breast
  TGI: > 100 µM
SW-620 colon
  TGI: > 100 µM
SK-MEL-5 melanoma
  TGI: > 100 µM
HOP-62 NSCLC
  TGI: > 100 µM
HOP-92 NSCLC
  TGI: > 100 µM
HCC-2998 colon
  TGI: > 100 µM
ACHN renal
  TGI: > 100 µM
T-47D breast
  TGI: > 100 µM
MALME-3M melanoma
  TGI: > 100 µM
UO-31 renal
  TGI: > 100 µM
OVCAR-4 ovarian
  TGI: > 100 µM
BT-549 breast
  TGI: > 100 µM
MDA-N
  TGI: > 100 µM
